These results are taken from patent US11780840B2 (Incyte Corporation, priority 2020, dated 2023).

Assay [1] has as its target T1, pseudo-kinase domain (JH2, amino-acids 536-812 with 3 surface mutations W659A, W777A, F794H) of human V617F mutant JAK2 (Homo sapiens, UniProt O60674, F794H/V617F/W659A/W777A).
T1 construct: pseudo-kinase domain (JH2, amino-acids 536-812 with 3 surface mutations W659A, W777A, F794H); His (C); Avi (biotinylated) (C); purchased BPS Bioscience 79498; host or cells: baculovirus expression system
The experiment in a line: JAK2 LanthaScreen JH2-V617F Binding Assay. To be noted: JAK2 JH2-V617F (0.26 nM), 50 nM Fluorescent JAK2-JH2 Tracer, 1 hour at 25° C.; read-out: JH2 BIND V617F. An outline of the steps:
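Biotinylated His-Avi-tagged JH2 protein was baculovirus-expressed and used at 0.26 nM. It was incubated with compound, 50 nM fluorescent JH2 tracer and 0.25 nM streptavidin-Tb for 1 h at 25 °C in pH 7.5 Tris buffer with MgCl2, BSA, DTT. Non-specific binding was defined with 2 mM ATP. IC50 came from four-parameter fits of TR-FRET signal.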
(In general: TR-FRET usually uses a lanthanide donor and a delayed reading to cut background.)

For assay [2], the target named is T2, pseudo-kinase domain (JH2, amino-acids 536-812 with 3 surface mutations W659A, W777A, F794H) of human Wild Type JAK2 (Homo sapiens, UniProt O60674, F794H/W659A/W777A).
T2 construct: pseudo-kinase domain (JH2, amino-acids 536-812 with 3 surface mutations W659A, W777A, F794H); His (C); Avi (biotinylated) (C); purchased BPS Bioscience 79463; host or cells: baculovirus expression system
T2 sequence (O60674 536-812 W659A/W777A/F794H): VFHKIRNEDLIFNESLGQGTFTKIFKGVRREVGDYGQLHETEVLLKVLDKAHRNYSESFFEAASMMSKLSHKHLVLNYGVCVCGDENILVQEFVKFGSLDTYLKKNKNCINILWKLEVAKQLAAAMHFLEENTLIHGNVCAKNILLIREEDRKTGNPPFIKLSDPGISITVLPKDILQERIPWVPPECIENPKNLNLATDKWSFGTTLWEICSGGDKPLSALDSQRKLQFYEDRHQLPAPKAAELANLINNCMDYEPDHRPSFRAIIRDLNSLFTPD
The experiment in a line: JAK2 LanthaScreen JH2-WT Binding Assay. The conditions noted are these: JAK2 JH2-WT (0.145 nM), 50 nM Fluorescent JAK2-JH2 Tracer, 1 hour at 25° C.; read-out: JH2 BIND WT. In outline: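 TR-FRET tracer displacement: 0.145 nM biotinylated JH2 protein, 50 nM fluorescent tracer, 0.25 nM streptavidin-Tb, compound dilution series; 50 mM Tris pH 7.5, 10 mM MgCl2, 5 mM DTT; 1 h, 25° C. Non-specific binding with 2 mM ATP. IC50 by 4-parameter fit.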

In assay [3] the target is T3, catalytic domain (JH1, amino acids 826-1132) of human JAK2 (Homo sapiens, UniProt O60674).
T3 construct: catalytic domain (JH1, amino acids 826-1132) of human JAK2; FLAG (N); purchased Carna Biosciences 08-445-20N; host or cells: baculovirus expression system
T3 sequence (O60674 826-1132): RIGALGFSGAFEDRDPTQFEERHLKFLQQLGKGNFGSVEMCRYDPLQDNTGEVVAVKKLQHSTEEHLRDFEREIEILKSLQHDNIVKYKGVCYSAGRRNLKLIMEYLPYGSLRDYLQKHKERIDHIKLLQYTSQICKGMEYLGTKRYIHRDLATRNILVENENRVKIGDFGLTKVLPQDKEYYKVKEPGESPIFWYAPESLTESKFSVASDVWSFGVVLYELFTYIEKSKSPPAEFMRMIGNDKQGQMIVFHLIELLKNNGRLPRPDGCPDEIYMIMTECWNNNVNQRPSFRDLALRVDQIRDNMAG
The experiment in a line: JAK2 LanthaScreen JH1 Binding Assay. The conditions noted are these: JAK2 JH1 (1.5 nM), 50 nM fluorescent JAK2-JH1 tracer, 2 hours at 25° C.; read-out: JH1 BIND. An outline of the steps: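 FLAG-tagged, biotinylated JAK2 JH1 (aa 826-1132, baculovirus-expressed; 1.5 nM) incubated 2 h at 25° C with compounds, 50 nM fluorescent tracer and 0.5 nM Streptavidin-Tb in Tris pH 7.5 buffer with MgCl2, Brij-35, BSA, EGTA, glycerol, DTT. Nonspecific binding defined with 2 mM ATP; TR-FRET IC50 from four-parameter fit.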

T1 sequence (O60674 536-812 V617F/W659A/W777A/F794H): as the sequence (O60674 536-812 W659A/W777A/F794H) above, with V82F counted along it

`COCC(=O)NC1CCC(n2c(=O)n(C)c3cnc4[nH]c(-c5cnn(CC(C)(C)O)c5)c(-c5ccc6c(cnn6C)c5)c4c32)CC1` (stereo not drawn) [Example 73, N-(4-(7-(1-(2-Hydroxy-2-methylpropyl)-1H-pyrazol-4-yl)-3-methyl-8-(1-methyl-1H-indazol-5-yl)-2-oxo-3,6-dihydroimidazo[4,5-d]pyrrolo[2,3-b]pyridin-1(2H)-yl)cyclohexyl)-2-methoxyacetamide]: the IC50 in assay [1] was not above 10 nM; in assay [2] it was not above 10 nM; in assay [3] it was more than 1000 nM.

On to `Cn1c(=O)n(C2CCCCC2)c2c3cc(-c4ccc(CN5CCC(S(C)(=O)=O)CC5)cc4)[nH]c3ncc21` [Example 10, 1-Cyclohexyl-3-methyl-7-(4-((4-(methylsulfonyl)piperidin-1-yl)methyl)phenyl)-3,6-dihydroimidazo[4,5-d]pyrrolo[2,3-b]pyridin-2(1H)-one], for which the IC50 in assay [1] is 100 to 500 nM; in assay [2], 10 to 100 nM; in assay [3], 10 to 100 nM.

On to `Cn1c(=O)n(-c2ccccc2)c2c3cc(-c4ccc(CN5CCC(S(C)(=O)=O)CC5)cc4)[nH]c3ncc21` [Example 1, 3-Methyl-7-(4-((4-(methylsulfonyl)piperidin-1-yl)methyl)phenyl)-1-phenyl-3,6-dihydroimidazo[4,5-d]pyrrolo[2,3-b]pyridin-2(1H)-one], for which the IC50 is 100 to 500 nM in assay [1], 10 to 100 nM in assay [2] and 10 to 100 nM in assay [3].

`CC(C)n1c(=O)n(C)c2cnc3[nH]c(-c4cnn(CC(C)(C)O)c4)c(-c4ccc5c(c4)CCCO5)c3c21` [Example 79, 8-(Chroman-6-yl)-7-(1-(2-hydroxy-2-methylpropyl)-1H-pyrazol-4-yl)-1-isopropyl-3-methyl-3,6-dihydroimidazo[4,5-d]pyrrolo[2,3-b]pyridin-2(1H)-one]: the IC50 in assay [1] is 10 to 100 nM; in assay [2] it was not above 10 nM; in assay [3], 100 to 500 nM.

`CC(C)n1c(=O)n(C)c2cnc3[nH]c(-c4cnn(CC(C)(C)O)c4)c(-c4ccc(C5(C#N)CC5)cc4)c3c21` [Example 50, 1-(4-(7-(1-(2-Hydroxy-2-methylpropyl)-1H-pyrazol-4-yl)-1-isopropyl-3-methyl-2-oxo-1,2,3,6-tetrahydroimidazo [4,5-d]pyrrolo[2,3-b]pyridin-8-yl)phenyl) cyclopropane-1-carbonitrile]: the IC50 in assay [1] was not above 10 nM; in assay [2] it was not above 10 nM; in assay [3], 500 to 1000 nM.

In the case of `Cn1c(=O)n(C2CCOCC2)c2c3c(-c4ccc(C5(N6CCOCC6)CC5)cc4)c(-c4cnn(CC(C)(C)O)c4)[nH]c3ncc21` [Example 51, 7-(1-(2-Hydroxy-2-methylpropyl)-1H-pyrazol-4-yl)-3-methyl-8-(4-(1-morpholinocyclo-propyl)phenyl)-1-(tetrahydro-2H-pyran-4-yl)-3,6-dihydroimidazo[4,5-d]pyrrolo[2,3-b]pyridin-2(1H)-one], the IC50 is not above 10 nM in assay [1], not above 10 nM in assay [2] and more than 1000 nM in assay [3].

In the case of `Cn1ncc2cc(-c3c(-c4ccc(CN5CCC(S(C)(=O)=O)CC5)cc4)[nH]c4ncc5c(c34)n(C3CCCC3)c(=O)n5C)ccc21` [Example 52, 1-Cyclopentyl-3-methyl-8-(1-methyl-1H-indazol-5-yl)-7-(4-((4-(methylsulfonyl)piperidin-1-yl)methyl)phenyl)-3,6-dihydroimidazo[4,5-d]pyrrolo[2,3-b]pyridin-2(1H)-one], the IC50 was not above 10 nM in assay [1], not above 10 nM in assay [2] and 100 to 500 nM in assay [3].

Regarding `COc1ccc(-c2c(-c3ccc(CN4CCC(S(C)(=O)=O)CC4)cc3)[nH]c3ncc4c(c23)n(C2CCCCC2)c(=O)n4C)cc1` [Example 19, 1-Cyclohexyl-8-(4-methoxyphenyl)-3-methyl-7-(4-((4-(methylsulfonyl)piperidin-1-yl)methyl)phenyl)-3,6-dihydroimidazo [4,5-d]pyrrolo[2,3-b]pyridin-2(1H)-one], the IC50 is not above 10 nM in assay [1], not above 10 nM in assay [2] and 10 to 100 nM in assay [3].

As for `CC(C)n1c(=O)n(C)c2cnc3[nH]c(-c4cnn(CC(C)(C)O)c4)c(-c4ccc5ncsc5c4)c3c21` [Example 78, 8-(Benzo[d]thiazol-6-yl)-7-(1-(2-hydroxy-2-methylpropyl)-1H-pyrazol-4-yl)-1-isopropyl-3-methyl-3,6-dihydroimidazo[4,5-d]pyrrolo[2,3-b]pyridin-2(1H)-one], the results for the IC50 in assay [1], in assay [2] and in assay [3] were 10 to 100 nM, 10 to 100 nM and more than 1000 nM, respectively.

`CC(C)n1c(=O)n(C)c2cnc3[nH]c(C4CC4)c(-c4ccc(C#N)cc4)c3c21` [Example 39]: the IC50 was 10 to 100 nM in assay [1], 10 to 100 nM in assay [2] and more than 1000 nM in assay [3].

For the compound `CC(C)n1c(=O)n(C)c2cnc3[nH]c(-c4cnn(CC(C)(C)O)c4)c(-c4ccc5c(cnn5C)c4)c3c21` [Example 55, 7-(1-(2-Hydroxy-2-methylpropyl)-1H-pyrazol-4-yl)-1-isopropyl-3-methyl-8-(1-methyl-1H-indazol-5-yl)-3,6-dihydroimidazo[4,5-d]pyrrolo[2,3-b] pyridin-2(1H)-one], the IC50 is not above 10 nM in assay [1], not above 10 nM in assay [2] and more than 1000 nM in assay [3].

On to `Cn1ncc2cc(-c3c(-c4cnn5c4CCC5)[nH]c4ncc5c(c34)n(C3CCOCC3)c(=O)n5C)ccc21` [Example 92, 7-(5,6-Dihydro-4H-pyrrolo[1,2-b]pyrazol-3-yl)-3-methyl-8-(1-methyl-1H-indazol-5-yl)-1-(tetrahydro-2H-pyran-4-yl)-3,6-dihydroimidazo[4,5-d]pyrrolo[2,3-b]pyridin-2(1H)-one], for which the IC50 in assay [1] was not above 10 nM; in assay [2], not above 10 nM; in assay [3], more than 1000 nM.

Take `Cn1ncc2cc(-c3c(S(C)(=O)=O)[nH]c4ncc5c(c34)n(C3CCCC3)c(=O)n5C)ccc21` [Example 99, 1-Cyclopentyl-3-methyl-8-(1-methyl-1H-indazol-5-yl)-7-(methylsulfonyl)-3,6-dihydroimidazo [4,5-d]pyrrolo[2,3-b] pyridin-2(1H)-one]: the IC50 was 500 to 1000 nM in assay [1], 500 to 1000 nM in assay [2] and more than 1000 nM in assay [3].

On to `CC(C)n1c(=O)n(C)c2cnc3[nH]c(-c4cnn(C)c4)c(C4CCN(C(=O)Cc5ccc(S(C)(=O)=O)cc5)CC4)c3c21` [Example 107, 1-Isopropyl-3-methyl-7-(1-methyl-1H-pyrazol-4-yl)-8-(1-(2-(4-(methylsulfonyl)phenyl)acetyl)piperidin-4-yl)-3,6-dihydroimidazo[4,5-d]pyrrolo[2,3-b]pyridin-2(1H)-one], for which the IC50 in assay [1] was in the range of 10 to 100 nM; in assay [2], 10 to 100 nM; in assay [3] it was 100 to 500 nM.

In the case of `CC(C)n1c(=O)n(C)c2cnc3[nH]c(-c4cnn(CS(C)(=O)=O)c4)c(-c4ccccc4)c3c21` [Example 44], the IC50 in assay [1] was not above 10 nM; in assay [2] it was not above 10 nM; in assay [3], 100 to 500 nM.

In the case of `Cn1ncc2cc(-c3c(C4CC4)[nH]c4ncc5c(c34)n(C3CCCC3)c(=O)n5C)ccc21` [Example 68, 1-Cyclopentyl-7-cyclopropyl-3-methyl-8-(1-methyl-1H-indazol-5-yl)-3,6-dihydroimidazo[4,5-d]pyrrolo[2,3-b]pyridin-2(1H)-one], the IC50 was not above 10 nM in assay [1], not above 10 nM in assay [2] and 500 to 1000 nM in assay [3].

In the case of `Cn1ncc2cc(-c3c(-c4cnn5cccnc45)[nH]c4ncc5c(c34)n(C3CCOCC3)c(=O)n5C)ccc21` [Example 90, 3-Methyl-8-(1-methyl-1H-indazol-5-yl)-7-(pyrazolo[1,5-a]pyrimidin-3-yl)-1-(tetrahydro-2H-pyran-4-yl)-3,6-dihydroimidazo[4,5-d]pyrrolo[2,3-b]pyridin-2(1H)-one], the IC50 in assay [1] was not above 10 nM; in assay [2] it was not above 10 nM; in assay [3], more than 1000 nM.

In the case of `Cn1c(=O)n(C)c2c3c(-c4ccccc4)c(C4CCNCC4)[nH]c3ncc21` [Example 41, 1,3-Dimethyl-8-phenyl-7-(piperidin-4-yl)-3,6-dihydroimidazo[4,5-d]pyrrolo[2,3-b]pyridin-2(1H)-one], the IC50 in assay [1], in assay [2] and in assay [3] was more than 1000 nM throughout.
